Measurements reported in the C3SDB collision cross section collection.

Conditions: [M+2Na-H]+; instrument: DT; stepped-field

collision cross section (N2) | Structure (SMILES)
279.42 Å² | CCCCC/C=C\C/C=C\CCCCCCCCCC(=O)O[C@H](COC(=O)CCCCCCC/C=C\CCCCCC)COP(=O)(O)OCCN [PE(36:03)]
282.48 Å² | CCCCC/C=C\C/C=C\C/C=C\C/C=C\C/C=C\CCC(=O)O[C@H](COCCCCCCCCCCCCCCCC)COP(=O)(O)OCCN [PE(o38:05)]
292.02 Å² | CCCCCCCCCCC/C=C\CCCCC(=O)O[C@H](COC(=O)CCCCCCCCCCCCCCCCC)COP(=O)([O-])OCC[N+](C)(C)C [PC(36:01)]
283.07 Å² | CCCCC/C=C\C/C=C\C/C=C\C/C=C\CCCCCC(=O)O[C@H](COC(=O)CCCCCCC/C=C\CCCCCCCC)COP(=O)(O)O [PA(40:05)]
288.51 Å² | CCCCCCCC/C=C\C/C=C\CCCCC(=O)O[C@H](COC(=O)CCCCCCC/C=C\CCCCCCCC)COP(=O)([O-])OCC[N+](C)(C)C [PC(36:03)]

Same assay, conditions: [M+Cl]-; instrument: DT; stepped-field

Structure (SMILES) | collision cross section (N2)
CCCC/C=C\CCCCCCCC(=O)OC[C@H](COP(=O)([O-])OCC[N+](C)(C)C)OC(=O)CCCCCCCCC/C=C\C/C=C\CCCCC [PC(34:03)] | 287.96 Å²
CCCCCC/C=C\CCCCCCCCCC(=O)O[C@H](COC(=O)CCCCCCC/C=C\CCCCCC)COP(=O)([O-])OCC[N+](C)(C)C [PC(34:02)] | 289.37 Å²
CCCCCCCC/C=C\C/C=C\CCCCC(=O)O[C@H](COC(=O)CCCCCCC/C=C\CCCCCCCC)COP(=O)([O-])OCC[N+](C)(C)C [PC(36:03)] | 293.42 Å²

Next, values leading:

collision cross section (N2) | Structure (SMILES)
299.55 Å² | CCCCCCCCCCCCC=CC[C@@H](O)[C@H](COP(=O)([O-])OCC[N+](C)(C)C)NC(=O)CC=CCCCCCCCCCCCCCCCCCC [SM(40:02)]
296.27 Å² | CCCCCCCCCCC/C=C\CCCCC(=O)O[C@H](COC(=O)CCCCCCCCCCCCCCCCC)COP(=O)([O-])OCC[N+](C)(C)C [PC(36:01)]

Same assay, conditions: [M+H-H2O]+; instrument: DT; stepped-field

collision cross section (N2) | Structure (SMILES)
267.47 Å² | CCCCCCCCCCCCC=CC[C@@H](O)[C@H](CO)NC(=O)CC=CCCCCCCCCCCCCCCCCCC [Cer(40:02)]

Same assay, conditions: [M+HCOO]-; instrument: DT; stepped-field

Structure (SMILES) | collision cross section (N2)
CCCC/C=C\CCCCCCCC(=O)OC[C@H](COP(=O)([O-])OCC[N+](C)(C)C)OC(=O)CCCCCCCCC/C=C\C/C=C\CCCCC [PC(34:03)] | 288.8 Å²
CCCCCC/C=C\CCCCCCCCCC(=O)O[C@H](COC(=O)CCCCCCC/C=C\CCCCCC)COP(=O)([O-])OCC[N+](C)(C)C [PC(34:02)] | 289.31 Å²
CCCCCCCC/C=C\CCCCCCCCCC(=O)O[C@H](COC(=O)CCCCCCCCCCC)COP(=O)([O-])OCC[N+](C)(C)C [PC(32:01)] | 284.71 Å²
CCCCCCCC/C=C\C/C=C\CCCCC(=O)O[C@H](COC(=O)CCCCCCC/C=C\CCCCCCCC)COP(=O)([O-])OCC[N+](C)(C)C [PC(36:03)] | 293.56 Å²

More lines, now with the values ahead:

collision cross section (N2) | Structure (SMILES)
308.73 Å² | CCCCCCCCCCCCCCCCCCCCCCCC(=O)N[C@@H](COP(=O)([O-])OCC[N+](C)(C)C)[C@H](O)CCCCCCCCCCCCCCC [SM(42:00)]
299.75 Å² | CCCCCCCCCCCCC=CC[C@@H](O)[C@H](COP(=O)([O-])OCC[N+](C)(C)C)NC(=O)CC=CCCCCCCCCCCCCCCCCCC [SM(40:02)]
296.46 Å² | CCCCCCCCCCC/C=C\CCCCC(=O)O[C@H](COC(=O)CCCCCCCCCCCCCCCCC)COP(=O)([O-])OCC[N+](C)(C)C [PC(36:01)]

Same assay, conditions: [M+H]+; instrument: DT; stepped-field

Structure (SMILES) | collision cross section (N2)
CCCCC/C=C\C/C=C\CCCCCCCCCC(=O)O[C@H](COC(=O)CCCCCCC/C=C\CCCCCC)COP(=O)(O)OCCN [PE(36:03)] | 273.34 Å²
CCCC/C=C\CCCCCCCC(=O)OC[C@H](COP(=O)([O-])OCC[N+](C)(C)C)OC(=O)CCCCCCCCC/C=C\C/C=C\CCCCC [PC(34:03)] | 277.12 Å²
CCCCCCCCCC/C=C\CCCCCCCCCC(=O)O[C@H](COC(=O)CCCCCCCCCCCCCCCCCCC)COP(=O)(O)OC[C@H](N)C(=O)O [PS(42:01)] | 301.86 Å²
CCCCC/C=C\C/C=C\CCCCCCCCCCCC(=O)O[C@H](COC(=O)CCCCCCC/C=C\CCCCCCCC)COP(=O)(O)OC[C@H](N)C(=O)O [PS(40:03)] | 292.62 Å²
CCCCCC/C=C\CCCCCCCCCC(=O)O[C@H](COC(=O)CCCCCCC/C=C\CCCCCC)COP(=O)([O-])OCC[N+](C)(C)C [PC(34:02)] | 279.51 Å²
CCCCCCCC/C=C\CCCCCCCCCC(=O)O[C@H](COC(=O)CCCCCCCCCCC)COP(=O)([O-])OCC[N+](C)(C)C [PC(32:01)] | 276.5 Å²
CCCCCCCCCCCCC=CC[C@@H](O)[C@H](CO[C@@H]1O[C@H](CO)[C@@H](O)C(O)C1O)NC(=O)CC=CCCCCCCCCCCCCCC (stereo partly drawn) [GlcCer(36:02)] | 281.37 Å²
CCCCCCCCCCCCC=CC[C@@H](O)[C@H](CO)NC(=O)CC=CCCCCCCCCCCCCCCCCCC [Cer(40:02)] | 272.27 Å²

Second part, the compound after the results:

collision cross section (N2) | Structure (SMILES)
261.92 Å² | CCCCCCCCCCCCCCCCCC(=O)N[C@@H](CO)[C@H](O)CCCCCCCCCCCCCCC [Cer(36:00)]
305.33 Å² | CCCCCCCCCCCCCCCCCCCCCCCC(=O)N[C@@H](COP(=O)([O-])OCC[N+](C)(C)C)[C@H](O)CCCCCCCCCCCCCCC [SM(42:00)]
295.66 Å² | CCCCCCCCCCCCC=CC[C@@H](O)[C@H](COP(=O)([O-])OCC[N+](C)(C)C)NC(=O)CC=CCCCCCCCCCCCCCCCCCC [SM(40:02)]
267.37 Å² | CCCCCCCCCCCCCCCCCCCC(=O)N[C@@H](CO)[C@H](O)CCCCCCCCCCCCCCC [Cer(38:00)]
288.22 Å² | CCCCCCCCCCC/C=C\CCCCC(=O)O[C@H](COC(=O)CCCCCCCCCCCCCCCCC)COP(=O)([O-])OCC[N+](C)(C)C [PC(36:01)]
284.59 Å² | CCCCCCCCCCCCCCCCCC(=O)N[C@@H](CO[C@@H]1O[C@H](CO)[C@@H](O)C(O)C1O)[C@H](O)CCCCCCCCCCCCCCC (stereo partly drawn) [GlcCer(36:00)]

Same assay, conditions: [M+K]+; instrument: DT; stepped-field

collision cross section (N2) | Structure (SMILES)
278.94 Å² | CCCCC/C=C\C/C=C\CCCCCCCCCC(=O)O[C@H](COC(=O)CCCCCCC/C=C\CCCCCC)COP(=O)(O)OCCN [PE(36:03)]
283.28 Å² | CCCCCC/C=C\CCCCCCCCCC(=O)O[C@H](COC(=O)CCCCCCC/C=C\CCCCCC)COP(=O)([O-])OCC[N+](C)(C)C [PC(34:02)]
291.07 Å² | CCCCCCCCCCC/C=C\CCCCC(=O)O[C@H](COC(=O)CCCCCCCCCCCCCCCCC)COP(=O)([O-])OCC[N+](C)(C)C [PC(36:01)]

Same assay, conditions: [M+Na]+; instrument: DT; stepped-field

Structure (SMILES) | collision cross section (N2)
CCCCC/C=C\C/C=C\CCCCCCCCCC(=O)O[C@H](COC(=O)CCCCCCC/C=C\CCCCCC)COP(=O)(O)OCCN [PE(36:03)] | 277.57 Å²
CCCC/C=C\CCCCCCCC(=O)OC[C@H](COP(=O)([O-])OCC[N+](C)(C)C)OC(=O)CCCCCCCCC/C=C\C/C=C\CCCCC [PC(34:03)] | 281.98 Å²
CCCCCCCCCC/C=C\CCCCCCCCCC(=O)O[C@H](COC(=O)CCCCCCCCCCCCCCCCCCC)COP(=O)(O)OC[C@H](N)C(=O)O [PS(42:01)] | 303.25 Å²
CCCCC/C=C\C/C=C\CCCCCCCCCCCC(=O)O[C@H](COC(=O)CCCCCCC/C=C\CCCCCCCC)COP(=O)(O)OC[C@H](N)C(=O)O [PS(40:03)] | 296.28 Å²
CCCCCC/C=C\CCCCCCCCCC(=O)O[C@H](COC(=O)CCCCCCC/C=C\CCCCCC)COP(=O)([O-])OCC[N+](C)(C)C [PC(34:02)] | 283.1 Å²
CCCCCCCCCCCCC=CC[C@@H](O)[C@H](CO[C@@H]1O[C@H](CO)[C@@H](O)C(O)C1O)NC(=O)CCCCCCCCCCCCCCCCCCCC (stereo partly drawn) [GlcCer(39:01)] | 291.95 Å²

Results, then the compound that gave them:

collision cross section (N2) | Structure (SMILES)
292.53 Å² | CCCCCCCCCCCCC=CC[C@@H](O)[C@H](COP(=O)([O-])OCC[N+](C)(C)C)NC(=O)CC=CCCCCCCCCCCCCCCCCCC [SM(40:02)]
290.25 Å² | CCCCCCCCCCC/C=C\CCCCC(=O)O[C@H](COC(=O)CCCCCCCCCCCCCCCCC)COP(=O)([O-])OCC[N+](C)(C)C [PC(36:01)]
